One assay deals with circulating lymphocytes. The assay is described as follows: Assessment of in vivo efficacy: circulating lymphocytes after oral administration. To be noted: 3 h after oral administration of 10 mg/kg to normotensive male Wistar rats, compared to vehicle-treated group. Here is the method:
The efficacy of the compounds of Formula (I) is assessed by measuring the circulating lymphocytes after oral administration of 3 to 30 mg/kg of a compound of Formula (I) to normotensive male Wistar rats. The animals are housed in climate-controlled conditions with a 12 h-light/dark cycle, and have free access to normal rat chow and drinking water. Blood is collected before and 3, 6 and 24 h after drug administration. Full blood is subjected to hematology using Advia Hematology system (Bayer Diagnostics, Zürich, Switzerland).
All data are presented as mean±SEM. Statistical analyses are performed by analysis of variance (ANOVA) using Statistica (StatSoft) and the Student-Newman-Keuls procedure for multiple comparisons. The null hypothesis is rejected when p<0.05.
Chain of recombinant human S1P1 receptor (P21453 whole entry): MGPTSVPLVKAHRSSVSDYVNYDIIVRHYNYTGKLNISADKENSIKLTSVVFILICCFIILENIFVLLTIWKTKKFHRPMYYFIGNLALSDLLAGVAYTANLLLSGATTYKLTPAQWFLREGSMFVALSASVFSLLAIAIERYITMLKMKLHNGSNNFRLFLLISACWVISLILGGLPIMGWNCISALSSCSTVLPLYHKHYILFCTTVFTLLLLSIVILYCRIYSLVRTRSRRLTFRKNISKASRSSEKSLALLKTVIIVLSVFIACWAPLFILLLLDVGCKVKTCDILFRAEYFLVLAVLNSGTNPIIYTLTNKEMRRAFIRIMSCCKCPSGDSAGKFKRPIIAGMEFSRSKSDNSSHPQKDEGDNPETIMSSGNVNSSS
For the molecule `CCc1sc(C(=O)CCc2cc(C)c(OC[C@@H](O)CO)c(C)c2)cc1-c1ccccc1` [Example 10, 3-[4-((S)-2,3-dihydroxy-propoxy)-3,5-dimethyl-phenyl]-1-(5-ethyl-4-phenyl-thiophen-2-yl)-propan-1-one], the Lymphocyte counts was −48.5%.

The next assay concerns the target recombinant human S1P1 receptor (Homo sapiens, UniProt P21453). The assay is described as follows: GTPγS assay to determine EC50 values. It counts as biochemical. The settings on record: 35S-GTPγS binding, membrane preparations of CHO cells expressing recombinant human S1P1 receptor, pH 7.4. Here is the method:
GTPγS binding assays are performed in 96 well microtiter plates (Nunc, 442587) in a final volume of 200 μl, using membrane preparations of CHO cells expressing recombinant human S1P1 receptor. Assay conditions are 20 mM Hepes (Fluka, 54461), 100 mM NaCl (Fluka, 71378), 5 mM MgCl2 (Fluka, 63064), 0.1% BSA (Calbiochem, 126609), 1 μM GDP (Sigma, G-7127), 2.5% DMSO (Fluka, 41644), […] ^35S-GTPγS (Amersham Biosciences, SJ1320). The pH is 7.4. Test compounds are dissolved and diluted in 100% DMSO and pre-incubated at room temperature for 30 min in 150 μl of the above assay buffer, in the absence of ^35S-GTPγS. After addition of 50 μl of ^35S-GTPγS, the assay is incubated for 1 h at room temperature.
The assay is terminated by transfer of the reaction mixture to a Multiscreen plate (Millipore, MAHFC1H60) using a cell harvester from Packard Biosciences, and the plates are washed with ice-cold 10 mM Na2HPO4/NaH2PO4 (70%/30%), dried, sealed at the bottom and, after addition of 25 μl MicroScint20 (Packard Biosciences, order no. 6013621), sealed on the top. Membrane-bound ^35S-GTPγS is measured with a TopCount from Packard Biosciences.
EC50 is the concentration of agonist inducing 50% of the maximal specific ^35S-GTPγS binding. Specific binding is determined by subtracting non-specific binding from maximal binding. Maximal binding is the amount of cpm bound to the Multiscreen plate in the presence of 10 μM of S1P. Non-specific binding is the amount of binding in the absence of an agonist in the assay.
(GTPγS resists hydrolysis and so accumulates on activated G proteins.)
Broadly, the EC50 is the concentration at which the effect is half-maximal. Regarding `CCc1sc(C(=O)CCc2cc(C)c(OC[C@@H](O)CO)c(C)c2)cc1-c1ccccc1` [Example 10, 3-[4-((S)-2,3-dihydroxy-propoxy)-3,5-dimethyl-phenyl]-1-(5-ethyl-4-phenyl-thiophen-2-yl)-propan-1-one], the EC50 was found to be 6.7 nM. The same measure, in the same setting: the result for `CCc1sc(C(=O)CCc2cc(C)c(CC(O)CO)c(C)c2)cc1-c1ccccc1` (stereo not shown) [Example 11, 3-[4-(2,3-dihydroxy-propyl)-3,5-dimethyl-phenyl]-1-(5-ethyl-4-phenyl-thiophen-2-yl)-propan-1-one] reads 18.3 nM. Take `CCc1sc(C(=O)CCc2cc(C)c(OC[C@@H](O)CO)c(C)c2)cc1-c1ccccc1C` [Example 20, 3-[4-((S)-2,3-dihydroxy-propoxy)-3,5-dimethyl-phenyl]-1-(5-ethyl-4-o-tolyl-thiophen-2-yl)-propan-1-one]: the concentration for a half-maximal effect (EC50) was found to be 6.3 nM. `CCCc1sc(C(=O)CCc2cc(C)c(OC[C@@H](O)CO)c(C)c2)cc1-c1ccccc1` [Example 24, 3-[4-((S)-2,3-dihydroxy-propoxy)-3,5-dimethyl-phenyl]-1-(4-phenyl-5-propyl-thiophen-2-yl)-propan-1-one]: the EC50 came to 16.4 nM.

Take `CCc1ccccc1-c1cc(C(=O)CCc2cc(C)c(OC[C@@H](O)CO)c(C)c2)sc1CC` [Example 31]: the EC50 worked out at 9.3 nM. Same read-out and setting: the result for `CCc1sc(C(=O)CCc2cc(C)c(OC[C@@H](O)CO)c(C)c2)cc1-c1ccccc1OC` [Example 50] reads 11.5 nM.

(Values after patent US7951794B2, “Thiophene derivatives” (Actelion Pharmaceuticals Ltd., priority 2005, dated 2011).)
